Results from patent US20240252461A1, “COMPOSITIONS AND METHODS FOR TREATMENT OF DEMYELINATION” (priority 2018, published 2024).

Key:
[1] = Blood-brain barrier penetration: DFO concentration in rat brain after IP injection; assay type: in vivo; conditions: for fraction of DFO that infiltrated the brain / DFO (mg/g organ) / DFO (mg/whole organ): SD rats; for fraction of DFO that infiltrated the brain: 90 min; for DFO (mg/g organ): brain; for DFO (mg/whole organ): whole brain
Procedure: In this study, the ability of the Zn-DFO complex to infiltrate into the brain was examined. Rats were injected intraperitoneally (IP) with increasing amounts of DFO alone or Zn-DFO complex, and the concentration of DFO was measured in their brains, thus monitoring their infiltrability.
(§1) In particular, male Sprague-Dawley (SD) rats (300 g average body weight, 3 animals per group) were injected IP with DFO (250, 500, or 1000 mg/kg body weight). For comparison, Zn-DFO solution in freshly prepared saline was injected IP (250, 500, or 1000 mg/kg body weight, which are equivalent to 221, 442, or 883 mg DFO/kg body weight, respectively).
(§2) The behavior of the rats was monitored for 90 min following the injection. Then, the animals were euthanized using an injection of ketamine-xylazine, and their hearts, livers, left kidneys, and brains were excised and weighted. Brain samples (300 mg tissue) were washed homogenized in 3 ml Lysis buffer. Tissue homogenates were incubated at 110° C. for 5 min and centrifuged for 5 min at 14,500 relative centrifugal force (RCF). An equal volume of 40% trichloroacetic acid (TCA) solution was added, forming a solution containing 20% TCA, which was vortexed and centrifuged again. The supernatants were transferred into cuvettes, and DFO concentration was spectrophotometrically measured, after addition of 10 mM of ferric iron solution (as a weak complex of iron, ferric-nitrilo-triacetate, at pH=7.4), and scanning the range of λ=380−580 nm. The final concentration was calculated according to the Beer-Lambert law, using εDFO=2460 M^−1cm^−1: the total amount of DFO per gram tissue and per whole brain were calculated.

[2] = Behavior of rats monitored for 90 min following IP injection; assay type: in vivo, rat; conditions: the three doses (250, 500, 1000 mg/kg IP)
Procedure: as §1, §2

[3] = system: Experimental Autoimmune Encephalomyelitis (EAE) model; assay: Murine Experimental Autoimmune Encephalomyelitis (EAE) model of multiple sclerosis; assay type: in vivo, C57BL/6 mice; conditions: glatiramer acetate 200 μg SC on day 0, alone
Procedure: In this study, the therapeutic effect of treatment with glatiramer acetate (Copaxone®) alone or in combination with Zn-DFO on multiple sclerosis (MS) is tested, using the murine Experimental Autoimmune Encephalomyelitis (EAE) model.
EAE is induced in 8-week-old female C57BL/6 mice by subcutaneous (SC) injection of 125 μg of myelin oligodendrocyte glycoprotein 35-55 peptide (MOG35-55) emulsified in complete Freund's adjuvant (CFA) containing 5 mg/ml heat-killed Mycobacterium tuberculosis into the left para-lumbar region. Immediately thereafter, and again at 48 h, the mice are inoculated intraperitoneal (IP) with 0.5 ml of pertussis toxin (400 ng). Seven days later, the mice are further challenged with an additional injection of MOG35-55 peptide in CFA injected into the right para-lumbar region.
Mice are treated with SC injection of 200 (μg glatiramer acetate (Copaxone®) per animal in mannitol 4% emulsion on day 0. Part of the animals are continued to be treated with Zn-DFO as IP injections, 2 mg/kg or 6 mg/kg, thrice a week till the end of the experiment (Day 28). Two additional groups of mice are treated with Zn-DFO analogously, but without the preceding injection with glatiramer acetate. The severity of the disease is assessed using the scale shown in Table 2 (Bittner et al. 2014).

MS = conditions: cited from earlier work
[4] = 90 min after IP injection of 250 mg/kg
[5] = 90 min after IP injection of 500 mg/kg
[6] = 90 min after IP injection of 1000 mg/kg

Compound | fraction of DFO that infiltrated the brain ([1]; IP 250 mg/kg) [%] | fraction of DFO that infiltrated the brain ([1]; IP 500 mg/kg) [%] | fraction of DFO that infiltrated the brain ([1]; IP 1000 mg/kg) [%] | DFO (mg/g organ) [1, 4] [mg/g organ] | DFO (mg/g organ) [1, 5] [mg/g organ] | DFO (mg/g organ) [1, 6] [mg/g organ] | fraction of DFO that had infiltrated into the brain ([1]; corresponding doses (250, 500, 1000 mg/kg IP), limited sensitivity of the instrument) [%] | DFO (mg/whole organ) [1, 4] [mg/whole organ] | DFO (mg/whole organ) [1, 5] [mg/whole organ] | DFO (mg/whole organ) [1, 6] [mg/whole organ] | rats' behavior after injection [2] | day on which peak clinical score is reached [3] [days] | onset of the disease [3] [days] | effect on the main outcome measures in MS (disease progression) (MS; La Mantia et al., 2010) | reduction of relapses (MS; relapsing-remitting MS, Hassan-Smith et al., 2011)
CC(=O)N(O)CCCCCNC(=O)CCC(=O)N(O)CCCCCNC(=O)CCC(=O)N(O)CCCCCN [DFO, N′-[5-(acetyl-hydroxy-amino)pentyl]-N-[5-[3-(5-aminopentyl-hydroxy-carbamoyl)propanoylamino]pentyl]-N-hydroxy-butane diamide] | <0.0015 | <0.0015 | 0.002 | <0.005 | <0.005 | 0.008 ± 0.004 | ≤ 0.002 | <0.005 | <0.005 | 0.019 ± 0.008 | no changes in rats' behavior | – | – | – | –
glatiramer acetate | – | – | – | – | – | – | – | – | – | – | – | 17 | 14 | did not show any beneficial effect | approximately 30%
